Data taken from US11850234B2, “Enhancement of cancer treatment efficiency via the sphingosine-1-phosphate pathway” (priority 2017, dated 2023).

What was measured:
[1] = system: pancreatic adenocarcinoma; experiment: Overall survival of pancreatic adenocarcinoma patients under gemcitabine chemotherapy, by plasmatic S1P concentration; format: in vivo, human
[2] = system: CAM-grafted pancreas, lung and ovarian tumors; experiment: Neoadjuvant effect in the CAM (Chicken Chorioallantoic Model) with grafted tumors; format: in vivo; conditions: compared to CAM-grafted tumors not previously treated with the neoadjuvants
Experimental: The neoadjuvant effect of benzylphthalazine and imidazole derivatives according to the present invention are assessed for their neoadjuvant effect against pancreas, lung and ovarian tumors.
The neoadjuvant effect is evaluated using the CAM (Chicken Chorioallantoic Model) as described by Sliwinska et al. (Sliwinska et al., Angiogenesis, 2014, 14(4), 779-804).

[3] = system: breast cancer metastatic cell line; conditions: 10 μM of S1P co-administered; cited from earlier work

Structure (SMILES) | overall survival median ([1]; conventional gemcitabine chemotherapy, plasmatic S1P higher than 650 nM versus lower, FIG. 3) | overall survival ([1]; patients having a high plasmatic S1P concentration (>650 nM), FIG. 5) | cytotoxic effect against CAM-grafted tumors pretreated with neoadjuvant [2] | effect on cytotoxicity of docetaxel, doxorubicin and cyclophosphamide [3]
Nc1ccn([C@@H]2O[C@H](CO)[C@@H](O)C2(F)F)c(=O)n1 [gemcitabine] | better overall survival median | 12.3 months | enhanced | 
CC(=O)O[C@H]1C(=O)[C@@]2(C)[C@H]([C@H](OC(=O)c3ccccc3)[C@]3(O)C[C@H](OC(=O)[C@H](O)[C@@H](NC(=O)c4ccccc4)c4ccccc4)C(C)=C1C3(C)C)[C@]1(OC(C)=O)CO[C@@H]1C[C@@H]2O [paclitaxel] |  |  | enhanced | 
CCCCCCCCCCCCC/C=C/[C@@H](O)[C@@H](N)COP(=O)(O)O [S1P, Sphingosine-1-phosphate] |  |  |  | increased the cytotoxicity
